These results are taken from patent publication US20080269291A1, “Chemical Compounds” (priority 2005, published 2008).

The structures appear in SMILES notation.

The target of the test is T1, Recombinant human IKKβ (residues 1-737) (Homo sapiens, UniProt O14920).
T1 construct: Recombinant human IKKβ (residues 1-737); GST (C); made in house
T1 sequence (O14920 1-737): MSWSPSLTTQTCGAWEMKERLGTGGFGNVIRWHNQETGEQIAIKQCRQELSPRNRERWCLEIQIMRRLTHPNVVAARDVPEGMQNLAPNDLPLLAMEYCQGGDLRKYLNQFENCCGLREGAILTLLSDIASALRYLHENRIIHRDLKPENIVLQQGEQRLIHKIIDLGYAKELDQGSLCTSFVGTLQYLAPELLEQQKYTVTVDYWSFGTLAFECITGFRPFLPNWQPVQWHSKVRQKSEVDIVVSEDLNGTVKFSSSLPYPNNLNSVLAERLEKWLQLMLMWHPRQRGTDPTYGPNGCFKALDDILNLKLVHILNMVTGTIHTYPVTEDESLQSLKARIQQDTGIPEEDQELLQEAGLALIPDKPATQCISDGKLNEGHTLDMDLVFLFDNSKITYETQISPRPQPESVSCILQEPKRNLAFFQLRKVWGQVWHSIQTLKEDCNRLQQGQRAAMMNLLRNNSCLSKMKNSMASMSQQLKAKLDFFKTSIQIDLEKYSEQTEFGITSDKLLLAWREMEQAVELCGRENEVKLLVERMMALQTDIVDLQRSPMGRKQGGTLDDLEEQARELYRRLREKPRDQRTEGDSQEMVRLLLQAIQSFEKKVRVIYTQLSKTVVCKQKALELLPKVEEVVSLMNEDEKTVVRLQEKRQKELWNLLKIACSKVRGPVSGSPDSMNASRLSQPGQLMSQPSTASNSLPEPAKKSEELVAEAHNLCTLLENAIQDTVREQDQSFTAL
As to the kind of experiment: IKK2 Assay (TR-FRET). It is filed as biochemical. As to conditions: activity against IKK2, IKK2 5 nM, GST-IκBα substrate 25 nM, ATP 1 μM, 30 minutes at room temperature. The method, then:
Recombinant human IKKβ (residues 1-737) was expressed in baculovirus as a C-terminal GST-tagged fusion protein, and its activity was assessed using a time-resolved fluorescence resonance energy transfer (TR-FRET) assay. Briefly, IKK2 (5 nM final) diluted in assay buffer (50 mM HEPES, 10 mM MgCl2, 1 mM CHAPS pH 7.4 with 1 mM DTT and 0.01% w/v BSA) was added to wells containing various concentrations of compound or DMSO vehicle (3% final). The reaction was initiated by the addition of GST-IκBα substrate (25 nM final)/ATP (1 μM final), in a total volume of 30 μL. The reaction was incubated for 30 minutes at room temperature, then terminated by the addition of 15 μL of 50 mM EDTA. Detection reagent (15 μl) in buffer (100 mM HEPES pH 7.4, 150 mM NaCl and 0.1% w/v BSA) containing antiphosphoserine-licBa-32/36 monoclonal antibody 12C2 (Cell Signalling Technology, Beverly Mass., USA) labelled with W-1024 europium chelate (Wallac OY, Turku, Finland), and an APC-labelled anti-GST antibody (Prozyme, San Leandro, Calif., USA) was added and the reaction was further incubated for 60 minutes at room temperature. The degree of phosphorylation of GST-IκBα was measured using a Packard Discovery plate reader (Perkin-Elmer Life Sciences, Pangbourne, UK) as a ratio of specific 665 nm energy transfer signal to reference europium 620 nm signal.

Turning to `CCS(=O)(=O)N1CCC(c2c[nH]c3c(C(N)=O)cc(S(=O)(=O)c4ccc(C)cc4)cc23)CC1` [Example 48, 3-[1-(ethylsulfonyl)-4-piperidinyl]-5-[(4-methylphenyl)sulfonyl]-1H-indole-7-carboxamide], the IC50 is 25.1 µM.
